Laboratory results reported in patent publication US5004758A, “Water soluble camptothecin analogs useful for inhibiting the growth of animal tumor cells” (priority 1988, dated 1991).
Structures can show the parent of a compound that is named as a salt. Where two headings read alike, the source gives them in different places.

How the values were obtained:
[1] = tested on: IEC-6 (rat intestinal epithelium); assay: Cytotoxicity to normal rodent cells in culture; assay type: cell-based
Experimental: (§1) The cell lines are used and maintained as monolayer cultures in Minimal Essential Media (Grand Island Biological Co., Grand Island, N.Y.) supplemented with 10% fetal calf serum in a 5% CO2 humidified incubator at 37° C. Various concentrations of a Formula (I) compound under sterile conditions were allowed to react for 2 hours followed by aspiration of medium or were exposed continuously. Plates are incubated for 7 days at 37° C. in a CO2 incubator. Medium was aspirated and cells were fixed and stained with ethanol and Geisma stain. The surviving cell population was determined by scanning the plates with an image analyzer. The percent inhibition of proliferation was determined relative to cells incubated in the absence of drug and the 50 percent inhibitory concentration (IC50) was determined by interpolation.

[2] = tested on: NRK52E (rat kidney epithelium); assay: Cytotoxicity to normal rodent cells in culture; assay type: cell-based; settings: NRK-52E
Experimental: as §1

iv Lewis lung carcinoma = assay: iv-implanted Lewis lung carcinoma in mice; assay type: in vivo, mouse; settings: for Increase in lifespan (ILS) / Long-Term Survivors: iv Lewis lung; for Increase in lifespan (ILS): B/ip (Days 1, 5, 9 and 13); for Long-Term Survivors: B/ip
Excerpt: (§2) Tumors used in these studies P388 leukemia, L1210 leukemia and Lewis lung carcinoma--are maintained by serial transplantation in syngeneic strains of mice, DBA/2 for the leukemias and C57B1/6 for Lewis lung carcinoma. The leukemias are serially transplanted i.p. as ascites cell suspensions while the Lewis lung carcinoma is serially transplanted as a s.c. solid tumor.
(§3) For therapeutic trials, tumors were aseptically removed from donor mice and prepared as suspensions for implantation into test animals which for each tumor are syngeneic female F1 hybrid B6D2F1 mice (C57B1/6×DBA/2). The inoculum level varies with the type of tumor: P388 leukemia is inoculated at 10^6 cells per mouse, L1210 leukemia at 10^5 or 10^6 cells per mouse, and Lewis lung carcinoma at 0.25 ml of a 10 percent (w:v) brei. […] After tumor inoculation, mice are randomized to treatment groups of 6 to 8 mice each. In each experiment, there are three groups of untreated control mice.
(§4) Drugs are dissolved or suspended in appropriate aqueous vehicles and given i.p. or i.v. on various treatment schedules over a range of dosage levels. Animals are housed in shoebox cages and monitored daily for mortality for 30 (L1210), 45 (P388) or 60 (Lewis lung) days.

iv L1210 leukemia = settings: mouse, in vivo
Excerpt: Animals were inoculated iv with 10^6 cells. Increase in lifespan (ILS) is based on median survival time of groups of 6 mice relative to untreated controls.
The protocols utilized for the evaluation of the antitumor activity of Formula (I) compounds are well established and widely utilized by those skilled in the art of assessing the activity of drugs in preclinical tumor models. These studies generally follow the protocols established by the National Cancer Institute as described by Geran et al., Cancer Chemotherapy Reports, Part 3, Vol. 3, 1-103, 1972.
as §2, §3, §4

WIDR = assay: Cytotoxicity to tumor cells in culture; assay type: cell-based; settings: Homo sapiens
Experimental: as §1

B16 Melanoma = assay: Cytotoxicity to tumor cells in culture; assay type: cell-based; settings: Mus musculus, continuous exposure
Experimental: as §1

L1210 Leukemia = assay: Cytotoxicity to tumor cells in culture; assay type: cell-based; settings: Mus musculus, 2 hr exposure
Experimental: as §1

SW-948 = assay: Cytotoxicity to tumor cells in culture; assay type: cell-based; settings: Homo sapiens
Experimental: as §1

DLD-1 = assay: Cytotoxicity to tumor cells in culture; assay type: cell-based; settings: Homo sapiens
Experimental: as §1

LOVO = assay: Cytotoxicity to tumor cells in culture; assay type: cell-based; settings: Homo sapiens
Experimental: as §1

SKCO-1 = assay: Cytotoxicity to tumor cells in culture; assay type: cell-based; settings: Homo sapiens
Experimental: as §1

SW-620 = assay: Cytotoxicity to tumor cells in culture; assay type: cell-based; settings: Homo sapiens
Experimental: as §1

CACO-2 = assay: Cytotoxicity to tumor cells in culture; assay type: cell-based; settings: Homo sapiens
Experimental: as §1

K12/Tr Colon Carcinoma = assay: Cytotoxicity to tumor cells in culture; assay type: cell-based; settings: K12/Tr rat colon carcinoma
Experimental: as §1

HT-29 = assay: Cytotoxicity to tumor cells in culture; assay type: cell-based; settings: Homo sapiens
Experimental: as §1

[3] = 2 hr exposure, read-out: IC50 2 Hr. Exposure
[4] = continuous exposure, read-out: IC50 Continuous Exposure
[5] = 2 hr exposure, 7-day incubation, read-out: IC50 2 Hr. Exposure
[6] = 168 h, continuous 7-day exposure, read-out: IC50 Continuous Exposure

`CC[C@@]1(O)C(=O)OCc2c1cc1n(c2=O)Cc2cc3c(CN(C)C)c(O)ccc3nc2-1` [Compound No. 1S, (20 S) 9-Dimethylaminomethyl-10-hydroxycamptothecin Acetate Salt] gave an IC50 [1, 3] of 3.9 µg/mL, an IC50 [1, 4] of 0.017 µg/mL and an IC50 [2, 3] of 1.2 µg/mL. For the same compound, the IC50 [2, 4] was 0.052 µg/mL, the “Increase in Lifespan (ILS) or Inhibition of Tumor Growth (TGI)” value (iv Lewis lung carcinoma; iv Lewis Lung Carcinoma, optimal doses and optimal schedules, Acetate Salt) was “Curative” and the “Increase in lifespan (ILS)” value (iv Lewis lung carcinoma; 3.2 mg/kg/injection) was 16%. The “Increase in lifespan (ILS)” value (iv Lewis lung carcinoma; 5.4 mg/kg/injection) was 37%, the “Increase in lifespan (ILS)” value (iv Lewis lung carcinoma; 15 mg/kg/injection) was greater than 200% and the “Increase in lifespan (ILS)” value (iv Lewis lung carcinoma; 25 mg/kg/injection) was “toxic”. For the same compound, the “Long-Term Survivors” value (iv Lewis lung carcinoma; 9 mg/kg/injection) was 1/7, the “Long-Term Survivors” value (iv Lewis lung carcinoma; 15 mg/kg/injection) was 7/7 and the ILS (iv L1210 leukemia; 3.2 mg/kg) was 50%. The “Increase in lifespan (ILS)” value (iv L1210 leukemia; 3.2 mg/kg) was 57%, the ILS (iv L1210 leukemia; 5.4 mg/kg) was 67% and the “Increase in lifespan (ILS)” value (iv L1210 leukemia; 5.4 mg/kg) was 93%. The ILS (iv L1210 leukemia; 9 mg/kg) was 83%, the “Increase in lifespan (ILS)” value (iv L1210 leukemia; 9 mg/kg) was 136% and the “Increase in lifespan (ILS)” value (iv L1210 leukemia; 15 mg/kg) was 171%. For the same compound, the “Long-Term Survivors” value (iv L1210 leukemia; 15 mg/kg) was 1/6, the ILS (iv L1210 leukemia; 25 mg/kg) was “toxic” and the “Increase in lifespan (ILS)” value (iv L1210 leukemia; 25 mg/kg) was “toxic”. The “Increase in Lifespan (ILS) or Inhibition of Tumor Growth (TGI)” value (iv L1210 leukemia; iv) was “Curative”, the “Long-Term Survivors” value (iv L1210 leukemia; iv, 1.3 mg/kg) was 2/7 and the “Long-Term Survivors” value (iv L1210 leukemia; iv, 2.2 mg/kg) was 1/7. The “Long-Term Survivors” value (iv L1210 leukemia; iv, 3.6 mg/kg) was 5/7, the “Long-Term Survivors” value (iv L1210 leukemia; iv, 24 mg/kg) was 4/7 and the IC50 (WIDR; [5]) was 2.1 µg/mL. The IC50 (WIDR; [6]) was 0.025 µg/mL, the IC50 (B16 Melanoma) was 0.62 µg/mL and the IC50 (L1210 Leukemia) was 1.4 µg/mL. For the same compound, the IC50 (SW-948; SW948, 2 hr exposure, 7-day incubation, read-out: IC50 2 Hr. Exposure) was 0.26 µg/mL, the IC50 (SW-948; SW948, 168 h, continuous 7-day exposure, read-out: IC50 Continuous Exposure) was 0.016 µg/mL and the IC50 (DLD-1; [5]) was 0.44 µg/mL. The IC50 (DLD-1; [6]) was 0.015 µg/mL, the IC50 (LOVO; [5]) was 0.58 µg/mL and the IC50 (LOVO; [6]) was 0.0097 µg/mL. The IC50 (SKCO-1; SK-CO-1, 2 hr exposure, 7-day incubation, read-out: IC50 2 Hr. Exposure) was 0.23 µg/mL, the IC50 (SKCO-1; SK-CO-1, 168 h, continuous 7-day exposure, read-out: IC50 Continuous Exposure) was 0.0039 µg/mL and the IC50 (SW-620; [5]) was 0.12 µg/mL. For the same compound, the IC50 (SW-620; [6]) was 0.0065 µg/mL, the IC50 (CACO-2; [5]) was 1.7 µg/mL and the IC50 (CACO-2; [6]) was 0.075 µg/mL. It also gave an IC50 (K12/Tr Colon Carcinoma; [3]) of 3.9 µg/mL, an IC50 (K12/Tr Colon Carcinoma; [4]) of 0.084 µg/mL and an IC50 (HT-29; [5]) of 0.58 µg/mL. The IC50 (HT-29; [6]) was 0.016 µg/mL.
